Results: patent US20260191192A1, “ANTIMICROBIAL COMPOSITIONS COMPRISING PELARGONIC ACID” (LANXESS Corporation, priority 2023, published 2026)

Tests used:
[1] = tested on: mixed bacterial inoculum for home care (Table 7); experiment: Challenge test (preservative efficacy), mixed bacterial inoculum, simplified pool (Table 7); type: cell-based, Pseudomonas aeruginosa, Staphylococcus aureus
Protocol: (§1) The preservative activity in representative rinse-off and leave-on formulations was evaluated using a modification of the Personal Care Products Council (PCPC—formerly the Cosmetic, Toiletry and Fragrance Association) protocol (Machtiger, et al. 2001. Determination of the Efficacy of Preservation of Non-Eye Area Water Miscible Cosmetic and Toiletry Formulations: Collaborative Study. J of AOAC International. 84:1, 101-109).
(§2) This evaluation was conducted using a four week, two or three-cycle (i.e., two-cycle for personal care and three-cycle for home care applications) microbial preservative efficacy test (i.e., challenge test) at 25° C. to determine the preservative efficacy of each treatment. Phenoxyethanol, benzyl alcohol and pelargonic acid were tested alone and in various combinations. The pelargonic acid used in the testing was purchased from Sigma-Aldrich. Combinations of phenoxyethanol or benzyl alcohol with benchmark multifunctional booster compounds were also tested for comparison. The preservative and booster ingredients were dosed and mixed thoroughly at room temperature into various formulations, specifically different personal care formulations including a lotion (leave-on, Table 1), a micellar water (rinse-off, Table 2), and a body wash formulation (rinse-off, Table 3) and different home care formulations including a manual dishwashing formulation (Table 4) and a liquid laundry detergent formulation (Table 5). […] Carbomers are a commonly used synthetic rheological modifier in personal care products. The formulation below was made by heating the aqueous (A) and oil (B) phases separately to 75-80° C. The oil phase was then poured into the aqueous phase and mixed by a homogenizer at approximately 45° C. The formed oil-in-water emulsion was cooled to room temperature. Triethanolamine and/or diluted sodium hydroxide was used to adjust the final pH to 6.3 or 6.5 (as indicated in the examples below).
(§3) After dosing, the samples were divided into two separate five gram aliquots. One aliquot was inoculated with 50 μl of a diluted bacterial pool, and the second aliquot was inoculated with 50 μl of a diluted fungal pool as described below. Unpreserved product samples were included as a growth control.
(§4) For personal care products, a mixed bacterial inoculum was prepared using 24-hour cultures of the test bacteria (Table 6) grown in trypticase soy broth (TSB). For home care products, a mixed bacterial inoculum was prepared using 24-hour cultures of the test bacteria either from Table 6 (full pool) or Table 7 (simplified pool) grown in trypticase soy broth (TSB). Details are disclosed in the home care examples below. Equal volumes of the bacterial test strains were combined and diluted one to ten in phosphate buffer to obtain an inoculum of approximately 5×10^7 to 5×10^8 colony forming units per ml (cfu/ml). The test samples were inoculated with 1% of the mixed bacterial inoculum. For both personal care and home care products, a mixed fungal inoculum was prepared using cell suspensions of the yeast Candida albicans ATCC #10231 and the mold Aspergillus brasiliensis ATCC #16404 in phosphate buffer. Equal volumes of the fungal test strains were combined and diluted one to ten with phosphate buffer to obtain an inoculum of approximately 5×10^6 to 5×10^7 cfu/ml. The test samples were inoculated with 1% of the mixed fungal inoculum.
(§5) For personal care products, the samples were subjected to two microbial challenges at time zero and inoculated a second time after seven days. For home care products, the samples were subjected to three microbial challenges at time zero and inoculated a second and third time after seven and fourteen days, respectively. The number of microorganisms added to each sample was determined by a standard Most Probable Number (MPN) determination in Trypticase Soy Broth (TSB) for bacteria and Potato Dextrose Broth (PDB) for fungi. Samples were incubated at 25° C. for the test duration of four weeks.

[2] = tested on: bacteria (Table 7 pool) and fungi; experiment: Challenge test, overall result (simplified bacteria pool and fungi); type: cell-based
Protocol: as §1, §2, §3, §4, §5

[3] = tested on: mixed bacterial inoculum (Table 6); experiment: Challenge test (preservative efficacy), mixed bacterial inoculum, full pool (Table 6); type: cell-based
Protocol: as §1, §2, §3, §4, §5

[4] = tested on: mixed fungal inoculum: Candida albicans ATCC #10231 and Aspergillus brasiliensis ATCC #16404; experiment: Challenge test (preservative efficacy), mixed fungal inoculum; type: cell-based
Protocol: as §1, §2, §3, §4, §5

[5] = ZenBio Cupric Ion Chelating (CIC) Assay; type: physicochemical; settings: calculated from a EDTA calibration curve, Pelargonic Acid at 775 μM
Protocol: The chelation property of the pelargonic acid was measured by using the ZenBio Cupric Ion Chelating (CIC) Assay (Cat #AOX-16). The assay measured the capacity of the pelargonic acid to chelate free cupric ions in solution, thereby inhibiting Cu(II) binding to pyrocatechol violet (PV) for generating a highly colored complex. The absorbance of the Cupric-PV complex was measured at a wavelength of 632 nm. The cupric ion chelating activity was determined as the percent of total PV over the Cu(II) binding. Ethylenediaminetetraacetic acid (EDTA), a well-known chelating agent, was used as a positive control. A series of EDTA with 7 different concentrations from 0 to 1000 μM were prepared and their corresponding absorbance measured and used as the calibration curve (Cupric ion chelating (%) vs. EDTA concentration). Percent cupric ion chelating was determined following the following calculations and Equation 1. The background absorbance value by averaging the absorbance values of the three background wells (no CuSO4 or sample). The average background absorbance was then subtracted from all the sample absorbance values. The maximal absorbance value (Absmax) was determined by averaging the absorbance values of the three wells containing CuSO4, PV and assay buffer. Abstest in Equation 1 is the absorbance of the test sample.
The calibration curve (Cupric ion chelating (%) vs. EDTA concentration) was fit by using a polynomial curve after log 10 transforming the concentrations (R2>0.98).

[6] = tested on: bacteria (Table 6 pool) and fungi; experiment: Challenge test, overall result (full bacteria pool and fungi); type: cell-based
Protocol: as §1, §2, §3, §4, §5

[7] = liquid laundry detergent, pH 7.5, Example 1G, dosed 0.5 wt %
[8] = liquid laundry detergent, pH 7.5, Example 1G, dosed 1.0 wt %
[9] = manual dishwashing formulation, pH 5.5, Example 1F, dosed 0.5 wt %
[10] = manual dishwashing formulation, pH 5.5, Example 1F, dosed 1.0 wt %
[11] = lotion with carbomer, pH 6.3, Example 1A, dosed 0.4 wt %
[12] = lotion with carbomer, pH 6.5, Example 1I, dosed 0.4 wt %
[13] = lotion with carbomer, pH 6.5, Example 1I, total dosing 0.8 wt %
[14] = liquid laundry detergent, pH 7.5, Example 1H, dosed 0.5 wt %
[15] = liquid laundry detergent, pH 7.5, Example 1H, dosed 1.0 wt %
[16] = micellar water, pH 6.0, Example 1B, dosed 0.3 wt %
[17] = micellar water, pH 6.0, Example 1C, dosed 0.3 wt %

Structure (SMILES): OCCOc1ccccc1 [Phenoxyethanol (POE), 2-phenoxyethan-1-ol]
- Bacteria growth rating Result ([1]; liquid laundry detergent, pH 7.5, simplified bacteria pool, Example 1G, dosed 0.5 wt %): Pass (growth rating score caused by bacteria of 1 or less at days 21-28 of the testing period)
- Bacteria growth rating Result ([1]; liquid laundry detergent, pH 7.5, simplified bacteria pool, Example 1G, dosed 1.0 wt %): Pass (growth rating score caused by bacteria of 1 or less at days 21-28 of the testing period)
- Bacteria growth rating Result ([1]; manual dishwashing formulation, pH 5.5, simplified bacteria pool, Example 1F, dosed 0.5 wt %): Fail (growth rating score caused by bacteria of 2 or more at days 21-28 of the testing period)
- Bacteria growth rating Result ([1]; manual dishwashing formulation, pH 5.5, simplified bacteria pool, Example 1F, dosed 1.0 wt %): Fail (growth rating score caused by bacteria of 2 or more at days 21-28 of the testing period)
- Overall Result [2, 7]: Fail
- Overall Result [2, 8]: Fail
- Overall Result [2, 9]: Fail
- Overall Result [2, 10]: Fail
- Bacteria growth rating Result ([3]; liquid laundry detergent, pH 7.5, full bacteria pool, Example 1H, dosed 0.5 wt %): Fail (growth rating score caused by bacteria of 2 or more at days 21-28 of the testing period)
- Bacteria growth rating Result ([3]; liquid laundry detergent, pH 7.5, full bacteria pool, Example 1H, dosed 1.0 wt %): Pass (growth rating score caused by bacteria of 1 or less at days 21-28 of the testing period)
- Bacteria growth rating Result [3, 11]: Fail (growth rating score caused by bacteria of 2 or more at days 21-28 of the testing period)
- Bacteria growth rating Result ([3]; lotion with carbomer, pH 6.3, Example 1D, dosed 0.4 wt %): Fail (growth rating score caused by bacteria of 2 or more at days 21-28 of the testing period)
- Bacteria growth rating Result ([3]; lotion with carbomer, pH 6.3, Example 1D, dosed 0.8 wt %): Pass (growth rating score caused by bacteria of 1 or less at days 21-28 of the testing period)
- Bacteria growth rating Result [3, 12]: Fail (growth rating score caused by bacteria of 2 or more at days 21-28 of the testing period)
- Bacteria growth rating Result [3, 13]: Pass (growth rating score caused by bacteria of 1 or less at days 21-28 of the testing period)
- Bacteria growth rating Result ([3]; micellar water, pH 6.0, bacteria inoculation ~10^7 cfu/ml, Example 1B, dosed 0.3 wt %): Pass (growth rating score caused by bacteria of 1 or less at days 21-28 of the testing period)
- Bacteria growth rating Result ([3]; micellar water, pH 6.0, bacteria inoculation ~10^8 cfu/ml, Example 1C, dosed 0.3 wt %): Fail (growth rating score caused by bacteria of 2 or more at days 21-28 of the testing period)
- Fungi growth rating Result [4, 7]: Fail (growth rating score caused by fungi of more than 2 at days 21-28 of the testing period)
- Fungi growth rating Result [4, 8]: Fail (growth rating score caused by fungi of more than 2 at days 21-28 of the testing period)
- Fungi growth rating Result [4, 14]: Fail (growth rating score caused by fungi of more than 2 at days 21-28 of the testing period)
- Fungi growth rating Result [4, 15]: Fail (growth rating score caused by fungi of more than 2 at days 21-28 of the testing period)
- Fungi growth rating Result [4, 11]: Fail (growth rating score caused by fungi of more than 2 at days 21-28 of the testing period)
- Fungi growth rating Result [4, 12]: Fail (growth rating score caused by fungi of more than 2 at days 21-28 of the testing period)
- Fungi growth rating Result [4, 13]: Pass (growth rating score caused by fungi of 2 or less at days 21-28 of the testing period)
- Fungi growth rating Result ([4]; lotion, pH 6.5, Example 4, dosed 0.8 wt %): Pass (growth rating score caused by fungi of 2 or less at days 21-28 of the testing period)
- Fungi growth rating Result ([4]; manual dishwash formulation, pH 6.5, Example 4, dosed 0.8 wt %): Fail (growth rating score caused by fungi of more than 2 at days 21-28 of the testing period)
- Fungi growth rating Result [4, 9]: Fail (growth rating score caused by fungi of more than 2 at days 21-28 of the testing period)
- Fungi growth rating Result [4, 10]: Fail (growth rating score caused by fungi of more than 2 at days 21-28 of the testing period)
- Fungi growth rating Result [4, 16]: Fail (growth rating score caused by fungi of more than 2 at days 21-28 of the testing period)
- Fungi growth rating Result [4, 17]: Fail (growth rating score caused by fungi of more than 2 at days 21-28 of the testing period)
- Calculated EDTA equivalent ([5]; listed as Phenoxyethanol): ~0 µM
- Calculated EDTA equivalent ([5]; listed as phenoxyethanol): ~ 0 μM
- Overall Result [6, 14]: Fail
- Overall Result [6, 15]: Fail
- Overall Result [6, 11]: Fail
- Overall Result [6, 12]: Fail
- Overall Result [6, 13]: Pass
- Overall Result [6, 16]: Fail
- Overall Result [6, 17]: Fail
